Results from patent publication US20230124862A1, “BISMUTH THIOL COMPOUNDS AND COMPOSITIONS AND METHODS OF TREATING MICROBIAL CO-INFECTIONS” (Microbion Corporation, priority 2020, published 2023).
In brackets after ≈: the same amount, converted by molar mass.

What was measured:
[1] = tested on: Klebsiella pneumoniae; test: Broth microdilution MIC (Example 12); type: cell-based
[2] = tested on: Enterobacteriaceae; details: E. coli (MMX 102), QC; cited from earlier work
[3] = tested on: Escherichia coli; test: Broth microdilution MIC (Example 12); type: cell-based
[4] = tested on: Enterobacteriaceae; test: Broth microdilution MIC (Example 11); type: cell-based, E. coli, K. pneumoniae, Enterobacter cloacae
[5] = tested on: Pseudomonas aeruginosa; details: P. aeruginosa ATCC 27853; CLSI established QC range; cited from earlier work
[6] = tested on: Pseudomonas aeruginosa; test: Broth microdilution MIC (Example 12); type: cell-based
[7] = tested on: Gram-positive aerobic bacteria (S. aureus, MRSA, CA-MRSA); test: MIC90 against 150 clinical isolates of Gram-positive aerobic bacteria; type: cell-based; details: S. aureus (50 isolates)
[8] = tested on: Acinetobacter baumannii; test: Broth microdilution MIC (Example 12); type: cell-based
[9] = tested on: P. aeruginosa and A. baumannii; details: P. aeruginosa (MMX 103), QC; cited from earlier work
[10] = tested on: Escherichia coli; details: E. coli ATCC 25922; CLSI established QC range; cited from earlier work

SMILES: CC(C)(O/N=C(\C(=O)N[C@@H]1C(=O)N2C(C(=O)[O-])=C(C[n+]3ccccc3)CS[C@H]12)c1csc(N)n1)C(=O)O [CAZ]
- MIC ([1]; K. pneumoniae ATCC BAA-1705, ATCC QC organism (Table 102)): >64 µg/mL
- MIC ([1]; K. pneumoniae ATCC BAA-1705, ESBL/KPC): >64 µg/mL
- MIC ([1]; K. pneumoniae CDC 112, KPC): >64 µg/mL
- MIC ([1]; K. pneumoniae CDC 113, ESBL/KPC): >64 µg/mL
- MIC ([1]; K. pneumoniae CDC 115, ESBL/KPC): >64 µg/mL
- MIC ([1]; K. pneumoniae CDC 120, ESBL/KPC): >64 µg/mL
- MIC ([1]; K. pneumoniae CDC 126, ESBL/KPC): 4 µg/mL (≈ 7.32 µM)
- MIC ([1]; K. pneumoniae CDC 129, ESBL/KPC): >64 µg/mL
- MIC ([1]; K. pneumoniae CDC 135, ESBL/VIM): >64 µg/mL
- MIC ([1]; K. pneumoniae CDC 138, ESBL/NDM): >64 µg/mL
- MIC ([1]; K. pneumoniae CDC 158, ESBL/NDM/OXA): >64 µg/mL
- MIC ([1]; K. pneumoniae MMX 9029, ESBL): 4 µg/mL (≈ 7.32 µM)
- CLSI Quality Control Range (MIC) [2]: (0.06-0.5) μg/mL
- MIC ([3]; E. coli ATCC 25922, ATCC QC organism (Table 102)): 0.25 µg/mL (≈ 0.457 µM)
- MIC ([3]; E. coli ATCC 35218, ATCC QC organism (Table 102)): 0.12 µg/mL (≈ 0.22 µM)
- MIC ([3]; E. coli ATCC 35218, ESBL): 0.12 µg/mL (≈ 0.22 µM)
- MIC ([3]; E. coli ATCC BAA-2471, NDM): >64 µg/mL
- MIC ([3]; E. coli CDC 114, ESBL/KPC): >64 µg/mL
- MIC ([3]; E. coli CDC 118, ESBL/NDM): >64 µg/mL
- MIC ([3]; E. coli CDC 435, NDM): >64 µg/mL
- MIC ([3]; E. coli CDC 451, KPC): 64 µg/mL (≈ 117 µM)
- MIC ([3]; E. coli CDC 503, ESBL/NDM): >64 µg/mL
- MIC ([3]; E. coli MMX 5745, KPC): 32 µg/mL (≈ 58.5 µM)
- MIC ([3]; E. coli MMX 5755, ESBL): >64 µg/mL
- MIC ([3]; E. coli MMX 5756, ESBL): >64 µg/mL
- MIC ([3]; E. coli MMX 5758, ESBL): 16 µg/mL (≈ 29.3 µM)
- MIC ([4]; E. cloacae (MMX 5981), NDM-1, LVX-R, MEM-R, CAZ-R, GEN-R): >32 µg/mL
- MIC ([4]; E. coli (MMX 102), QC): 0.12 µg/mL (≈ 0.22 µM)
- MIC ([4]; E. coli (MMX 5980), NDM-1, LVX-R, MEM-R, CAZ-R, GEN-R): >32 µg/mL
- MIC ([4]; E. coli (MMX 8423), ESBL, LVX-R, CAZ-R, GEN-R): 32 µg/mL (≈ 58.5 µM)
- MIC ([4]; E. coli (MMX 8424), ESBL, CAZ-R): 16 µg/mL (≈ 29.3 µM)
- MIC ([4]; E. coli (MMX 8425), ESBL, LVX-R, CAZ-R, GEN-R): 16 µg/mL (≈ 29.3 µM)
- MIC ([4]; K. pneumoniae (MMX 4622), KPC-2, MEM-R, CAZ-R): >32 µg/mL
- MIC ([4]; K. pneumoniae (MMX 4623), KPC-2, MEM-R, CAZ-R, GEN-R): >32 µg/mL
- MIC ([4]; K. pneumoniae (MMX 4653), KPC-3, LVX-R, MEM-R, CAZ-R): >32 µg/mL
- MIC ([4]; K. pneumoniae (MMX 4683), KPC-2, LVX-R, MEM-R, CAZ-R): >32 µg/mL
- MIC ([4]; K. pneumoniae (MMX 4684), ESBL, MEM-R): 8 µg/mL (≈ 14.6 µM)
- MIC ([4]; K. pneumoniae (MMX 4685), ESBL, LVX-R, MEM-R, CAZ-R): >32 µg/mL
- MIC ([4]; K. pneumoniae (MMX 4694), KPC-3, LVX-R, MEM-R, CAZ-R): >32 µg/mL
- MIC ([4]; K. pneumoniae (MMX 5979), NDM-1, LVX-R, MEM-R, CAZ-R, GEN-R): >32 µg/mL
- QC range of MIC [5]: (1-4) μg/mL
- MIC ([6]; P. aeruginosa ATCC 27853, ATCC QC organism (Table 102)): 2 µg/mL (≈ 3.66 µM)
- MIC ([6]; P. aeruginosa CDC 230, VIM/OXA): 64 µg/mL (≈ 117 µM)
- MIC ([6]; P. aeruginosa CDC 231, KPC/OXA): >64 µg/mL
- MIC ([6]; P. aeruginosa CDC 241, IMP/OXA): >64 µg/mL
- MIC ([6]; P. aeruginosa CDC 246, NDM/OXA): >64 µg/mL
- MIC ([6]; P. aeruginosa CDC 250, NDM/OXA): >64 µg/mL
- MIC ([6]; P. aeruginosa CDC 356, KPC): 64 µg/mL (≈ 117 µM)
- MIC ([6]; P. aeruginosa CDC 439, IMP): >64 µg/mL
- MIC ([6]; P. aeruginosa CDC 444, VIM): 32 µg/mL (≈ 58.5 µM)
- MIC ([6]; P. aeruginosa CDC 457, VIM): >64 µg/mL
- MIC ([6]; P. aeruginosa CDC 516, KPC/AmpC): 64 µg/mL (≈ 117 µM)
- MIC ([6]; P. aeruginosa CDC 518, KPC/AmpC): 32 µg/mL (≈ 58.5 µM)
- MIC90 ([7]; CA-MRSA): >64 µg/mL
- MIC90 ([7]; MRSA): >64 µg/mL
- MIC90 ([7]; MSSA): 16 µg/mL (≈ 29.3 µM)
- MIC ([8]; A. baumannii CDC 273, ESBL/OXA): 64 µg/mL (≈ 117 µM)
- MIC ([8]; A. baumannii CDC 274, ESBL/OXA): >64 µg/mL
- MIC ([8]; A. baumannii CDC 275, ESBL/OXA): >64 µg/mL
- MIC ([8]; A. baumannii CDC 277, ESBL/OXA): >64 µg/mL
- MIC ([8]; A. baumannii CDC 284, ESBL/OXA): 64 µg/mL (≈ 117 µM)
- MIC ([8]; A. baumannii CDC 307, OXA): 64 µg/mL (≈ 117 µM)
- MIC ([8]; A. baumannii CDC 308, ESBL/OXA): 64 µg/mL (≈ 117 µM)
- MIC ([8]; A. baumannii CDC 311, OXA): >64 µg/mL
- MIC ([8]; A. baumannii CDC 312, OXA): >64 µg/mL
- MIC ([8]; A. baumannii CDC 313, ESBL/OXA): >64 µg/mL
- MIC ([8]; A. baumannii NCTC 13304, OXA): >64 µg/mL
- CLSI Quality Control Range (MIC) [9]: (1.4)
- QC range of MIC [10]: (0.06-0.5) μg/mL
